According to PubChem BioAssay AID248 (DTP/NCI, 2004):
Where “and” joins values, the source holds several entries; their conditions need not be identical. Identical values can stand only once. Toxic doses and inconclusive results are not listed. Cut-off read from the data, not from the text of the source: active = T/C of 150% or more; inactive = T/C below 125%.

System: L1210 leukemia ip in BDF1 mice, survival T/C
Test: NCI In Vivo Anticancer Drug Screen. Data for tumor model L1210 Leukemia (intraperitoneal) in B6D2F1 (BDF1) mice
Conditions: endpoint: mean survival time, higher = longer survival
Method in brief: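 Tumor cells were implanted, animals were treated, and survival was followed. The result divides the treated measurement by the vehicle-control measurement.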

[1] = dose: 75.0 mg/kg/injection, schedule: Q01DX001 (ip), vehicle: saline
[2] = dose: 150.0 mg/kg/injection, schedule: Q01DX001 (ip), vehicle: saline
[3] = dose: 100.0 mg/kg/injection, schedule: Q04DX003 (ip), vehicle: saline
[4] = dose: 200.0 mg/kg/injection, schedule: Q04DX003 (ip), vehicle: saline
[5] = dose: 400.0 mg/kg/injection, schedule: Q04DX003 (ip), vehicle: saline
[6] = dose: 100.0 mg/kg/injection, schedule: Q04DX002 (ip), vehicle: saline
[7] = dose: 200.0 mg/kg/injection, schedule: Q04DX002 (ip), vehicle: saline
[8] = dose: 400.0 mg/kg/injection, schedule: Q04DX002 (ip), vehicle: saline
[9] = dose: 100.0 mg/kg/injection, schedule: Q04DX002 (ip), vehicle: Klucel (hydroxypropylcellulose) (HPC)
[10] = dose: 200.0 mg/kg/injection, schedule: Q04DX002 (ip), vehicle: Klucel (hydroxypropylcellulose) (HPC)
[11] = dose: 100.0 mg/kg/injection, schedule: Q01DX001 (ip), vehicle: saline
[12] = dose: 200.0 mg/kg/injection, schedule: Q01DX001 (ip), vehicle: saline
[13] = dose: 400.0 mg/kg/injection, schedule: Q01DX001 (ip), vehicle: saline
[14] = dose: 100.0 mg/kg/injection, schedule: Q01DX001 (ip), vehicle: carboxymethylcellulose (CMC)
[15] = dose: 200.0 mg/kg/injection, schedule: Q01DX001 (ip), vehicle: carboxymethylcellulose (CMC)
[16] = dose: 100.0 mg/kg/injection, schedule: Q04DX002 (ip), vehicle: saline with Tween-80
[17] = dose: 200.0 mg/kg/injection, schedule: Q04DX002 (ip), vehicle: saline with Tween-80
[18] = dose: 100.0 mg/kg/injection, schedule: Q04DX003 (ip), vehicle: saline with Tween-80
[19] = dose: 200.0 mg/kg/injection, schedule: Q04DX003 (ip), vehicle: saline with Tween-80
[20] = dose: 400.0 mg/kg/injection, schedule: Q04DX003 (ip), vehicle: saline with Tween-80
[21] = dose: 25.0 mg/kg/injection, schedule: Q01DX009 (ip), vehicle: saline with Tween-80
[22] = dose: 50.0 mg/kg/injection, schedule: Q01DX001 (ip), vehicle: saline
[23] = dose: 100.0 mg/kg/injection, schedule: Q01DX009 (ip), vehicle: saline with Tween-80
[24] = dose: 200.0 mg/kg/injection, schedule: Q01DX009 (ip), vehicle: saline with Tween-80
[25] = dose: 400.0 mg/kg/injection, schedule: Q01DX009 (ip), vehicle: saline with Tween-80
[26] = dose: 400.0 mg/kg/injection, schedule: Q04DX002 (ip), vehicle: Klucel (hydroxypropylcellulose) (HPC)

Measured: T/C

OC(c1ccccc1)C(c1ccccc1)N1CCCC1 (configuration not stated)
inactive: [1] 94 % of control | [2] 97 % of control | dose: 300.0 mg/kg/injection, schedule: Q01DX001 (ip), vehicle: saline 92 % of control

O=S(=O)(O)c1cc(O)c2cc(Nc3ccccc3)ccc2c1
inactive: dose: 50.0 mg/kg/injection, schedule: Q01DX009 (ip), vehicle: saline 96 % of control | dose: 100.0 mg/kg/injection, schedule: Q01DX009 (ip), vehicle: saline 93 % of control | [3] 89 % of control | dose: 200.0 mg/kg/injection, schedule: Q01DX009 (ip), vehicle: saline 102 % of control | [4] 100 % of control

COc1cccc(CO)c1-c1c(CO)cccc1OC
inactive: [3] 95 % of control | [4] 97 % of control | [5] 97 % of control

C/C=C/C=C/COC(=O)CCCCCCCC
inactive: [6] 103 % of control | [7] 103 % of control | [8] 108 % of control

COC(=O)N(CCCCN(N=O)C(=O)OC)N=O
inactive: [9] 101 % of control | [10] 108 % of control

COC(CN)C(Cl)(Cl)Cl (configuration not stated)
inactive: [11] 98 % of control | [6] 96 % of control and 89 % of control | [3] 98 % of control | [12] 107 % of control | [7] 94 % of control and 100 % of control | [4] 107 % of control | [13] 96 % of control | [8] 96 % of control and 100 % of control | [5] 106 % of control

Cc1ccc(S(=O)(=O)OCCN(CCOS(=O)(=O)c2ccc(C)cc2)c2ccc(C=O)cc2)cc1
inactive: dose: 50.0 mg/kg/injection, schedule: Q01DX001 (ip), vehicle: carboxymethylcellulose (CMC) 114 % of control | [14] 102 % of control and 120 % of control | dose: 175.0 mg/kg/injection, schedule: Q01DX001 (ip), vehicle: carboxymethylcellulose (CMC) 121 % of control | [15] 98 % of control and 122 % of control | dose: 265.0 mg/kg/injection, schedule: Q01DX001 (ip), vehicle: carboxymethylcellulose (CMC) 116 % of control | dose: 600.0 mg/kg/injection, schedule: Q01DX001 (ip), vehicle: carboxymethylcellulose (CMC) 115 % of control

COc1cc(C=Nc2ccc(C)c(Cl)c2)ccc1OC(=O)c1ccccc1
inactive: [16] 96 % of control | [17] 93 % of control | dose: 400.0 mg/kg/injection, schedule: Q04DX002 (ip), vehicle: saline with Tween-80 104 % of control

O=C(CSCC(=O)c1ccc(Br)cc1)c1ccc(Br)cc1
inactive: dose: 100.0 mg/kg/injection, schedule: Q04DX003 (ip), vehicle: other 101 % of control | dose: 200.0 mg/kg/injection, schedule: Q04DX003 (ip), vehicle: other 93 % of control | dose: 400.0 mg/kg/injection, schedule: Q04DX003 (ip), vehicle: other 86 % of control

Clc1ccc([As](c2ccc(Cl)cc2)c2ccc(Cl)cc2)cc1
inactive: [18] 100 % of control | [19] 90 % of control | [20] 101 % of control

CC(CCOS(C)(=O)=O)OS(C)(=O)=O (configuration not stated)
inactive: [18] 112 % of control | [19] 107 % of control | [20] 88 % of control

C[n+]1c(/C=C/c2ccc3cccc(O)c3n2)ccc2cccc(O)c21
inactive: dose: 12.5 mg/kg/injection, schedule: Q01DX001 (ip), vehicle: saline 100 % of control | dose: 12.5 mg/kg/injection, schedule: Q01DX009 (ip), vehicle: saline with Tween-80 106 % of control | dose: 12.5 mg/kg/injection, schedule: Q04DX003 (ip), vehicle: saline 96 % of control | dose: 25.0 mg/kg/injection, schedule: Q01DX001 (ip), vehicle: saline 107 % of control | [21] 95 % of control | dose: 25.0 mg/kg/injection, schedule: Q04DX003 (ip), vehicle: saline 97 % of control | [22] 102 % of control | dose: 50.0 mg/kg/injection, schedule: Q04DX003 (ip), vehicle: saline 96 % of control

CCN(CC)CCCC(C)Nc1cc(N)c2ncc(-c3ccc(Cl)cc3)nc2n1 (configuration not stated)
inactive: [1] 96 % of control | [2] 102 % of control

Cc1ccc(NC(=O)COc2ccc(Cl)cc2Cl)cc1Cl
inactive: [21] 91 % of control | dose: 50.0 mg/kg/injection, schedule: Q01DX009 (ip), vehicle: saline with Tween-80 89 % of control | [23] 86 % of control | [24] 87 % of control | [25] 88 % of control

Cc1ccnc(NC(=O)Nc2ccccc2Cl)c1
inactive: [9] 90 % of control | [10] 93 % of control | [26] 118 % of control

N#CCN(CC#N)CCN(CC#N)CC#N
inactive: dose: 100.0 mg/kg/injection, schedule: Q01DX009 (ip), vehicle: Klucel (hydroxypropylcellulose) (HPC) 95 % of control | dose: 100.0 mg/kg/injection, schedule: Q04DX003 (ip), vehicle: Klucel (hydroxypropylcellulose) (HPC) 103 % of control | dose: 200.0 mg/kg/injection, schedule: Q01DX009 (ip), vehicle: Klucel (hydroxypropylcellulose) (HPC) 92 % of control | dose: 200.0 mg/kg/injection, schedule: Q04DX003 (ip), vehicle: Klucel (hydroxypropylcellulose) (HPC) 90 % of control | dose: 400.0 mg/kg/injection, schedule: Q01DX009 (ip), vehicle: Klucel (hydroxypropylcellulose) (HPC) 93 % of control | dose: 400.0 mg/kg/injection, schedule: Q04DX003 (ip), vehicle: Klucel (hydroxypropylcellulose) (HPC) 105 % of control

Cc1ccc(C(O)C(=O)O)c(C)c1 (configuration not stated)
inactive: [16] 101 % of control | [17] 89 % of control

Cc1ccc(S/N=C\c2ccccc2O)cc1
inactive: dose: 50.0 mg/kg/injection, schedule: Q04DX002 (ip), vehicle: Klucel (hydroxypropylcellulose) (HPC) 93 % of control | [9] 100 % of control | [10] 107 % of control and 91 % of control | [26] 91 % of control

CC(C)(C#N)N=NC(C)(C)C#N
inactive: dose: 25.0 mg/kg/injection, schedule: Q01DX009 (ip), vehicle: alcohol 96 % of control | dose: 50.0 mg/kg/injection, schedule: Q01DX009 (ip), vehicle: alcohol 96 % of control | dose: 50.0 mg/kg/injection, schedule: Q04DX003 (ip), vehicle: alcohol 98 % of control | dose: 100.0 mg/kg/injection, schedule: Q04DX003 (ip), vehicle: alcohol 95 % of control

CN(C)C=Nc1ccc([N+](=O)[O-])cc1
inactive: [22] 89 % of control | [11] 89 % of control | [23] 96 % of control | [12] 96 % of control | [24] 89 % of control | [13] 91 % of control | [25] 90 % of control

CCS(=O)(=O)c1ccc(NC(=O)OC2CC(C)CCC2C(C)C)cc1 (configuration not stated)
inactive: [14] 100 % of control | [15] 102 % of control | dose: 400.0 mg/kg/injection, schedule: Q01DX001 (ip), vehicle: carboxymethylcellulose (CMC) 91 % of control
